Measurements reported in the supplement of paper PMC10307832.

Columns and labels:
Experiment in all cases: relative viability (nuclei count vs DMSO), 5 days (fraction); higher = more cells survive
NCI-H1792 = test system: NCI-H1792
In short: (§1)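 Relative viability equals treated-well nuclei counts divided by vehicle-well nuclei counts. Counts came from 4× images of lung cancer cell lines grown in 1536-well plates for 5 days after pin-tool dosing on the day after seeding. Dosing used one drug alone or a fixed anchor-drug dose plus five library-drug doses (not always all listed) in √10 steps, and values are medians of duplicate plates.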

SK-MES-1 = test system: SK-MES-1
In short: as §1

NCI-H2170 = test system: NCI-H2170
In short: as §1

NCI-H727 = test system: NCI-H727
In short: as §1

EMC-BAC-2 = test system: EMC-BAC-2
In short: as §1

NCI-H2228 = test system: NCI-H2228
In short: as §1

PC-3 [JPC-3] = test system: PC-3 [JPC-3]
In short: as §1

NCI-H2009 = test system: NCI-H2009
In short: as §1

LK-2 = test system: LK-2
In short: as §1

NCI-H1944 = test system: NCI-H1944
In short: as §1

NCI-H322M = test system: NCI-H322M
In short: as §1

HARA = test system: HARA
In short: as §1

NCI-H1993 = test system: NCI-H1993
In short: as §1

NCI-H596 = test system: NCI-H596
In short: as §1

HOP-62 = test system: HOP-62
In short: as §1

NCI-H3122 = test system: NCI-H3122
In short: as §1

A-427 = test system: A-427
In short: as §1

ABC-1 = test system: ABC-1
In short: as §1

SW 1573 = test system: SW 1573
In short: as §1

LXF-289 = test system: LXF-289
In short: as §1

O=c1cc(N2CCOCC2)oc2c(-c3cccc4c3sc3ccccc34)cccc12 + CS(=O)(=O)CCNCc1ccc(-c2ccc3ncnc(Nc4ccc(OCc5cccc(F)c5)c(Cl)c4)c3c2)o1 [Lapatinib] (partner 2 µM)
relative viability (NCI-H1792; first compound 0.01 µM): 0.884
relative viability (NCI-H1792; first compound 0.03162 µM): 0.896
relative viability (NCI-H1792; first compound 0.1 µM): 0.808
relative viability (NCI-H1792; first compound 0.3162 µM): 0.874
relative viability (NCI-H1792; first compound 1 µM): 0.828
relative viability (SK-MES-1; first compound 0.01 µM): 0.51
relative viability (SK-MES-1; first compound 0.03162 µM): 0.53
relative viability (SK-MES-1; first compound 0.1 µM): 0.487
relative viability (SK-MES-1; first compound 0.3162 µM): 0.453
relative viability (SK-MES-1; first compound 1 µM): 0.407
relative viability (NCI-H2170; first compound 0.01 µM): 0.241
relative viability (NCI-H2170; first compound 0.03162 µM): 0.25
relative viability (NCI-H2170; first compound 0.1 µM): 0.253
relative viability (NCI-H2170; first compound 0.3162 µM): 0.285
relative viability (NCI-H2170; first compound 1 µM): 0.274
relative viability (NCI-H727; first compound 0.01 µM): 0.835
relative viability (NCI-H727; first compound 0.03162 µM): 0.973
relative viability (NCI-H727; first compound 0.1 µM): 0.925
relative viability (NCI-H727; first compound 0.3162 µM): 0.717
relative viability (NCI-H727; first compound 1 µM): 0.954
relative viability (EMC-BAC-2; first compound 0.01 µM): 0.732
relative viability (EMC-BAC-2; first compound 0.03162 µM): 0.946
relative viability (EMC-BAC-2; first compound 0.1 µM): 0.97
relative viability (EMC-BAC-2; first compound 0.3162 µM): 0.893
relative viability (EMC-BAC-2; first compound 1 µM): 0.848
relative viability (NCI-H2228; first compound 0.03162 µM): 0.978
relative viability (NCI-H2228; first compound 0.1 µM): 1.03
relative viability (NCI-H2228; first compound 0.3162 µM): 1.23
relative viability (NCI-H2228; first compound 1 µM): 1.19
relative viability (PC-3 [JPC-3]; first compound 0.01 µM): 0.492
relative viability (PC-3 [JPC-3]; first compound 0.03162 µM): 0.435
relative viability (PC-3 [JPC-3]; first compound 0.1 µM): 0.462
relative viability (PC-3 [JPC-3]; first compound 0.3162 µM): 0.421
relative viability (PC-3 [JPC-3]; first compound 1 µM): 0.423
relative viability (NCI-H2009; first compound 0.01 µM): 0.906
relative viability (NCI-H2009; first compound 0.03162 µM): 0.915
relative viability (NCI-H2009; first compound 0.1 µM): 0.895
relative viability (NCI-H2009; first compound 0.3162 µM): 0.94
relative viability (NCI-H2009; first compound 1 µM): 1.15
relative viability (LK-2; first compound 0.01 µM): 0.832
relative viability (LK-2; first compound 0.03162 µM): 0.986
relative viability (LK-2; first compound 0.1 µM): 1.12
relative viability (LK-2; first compound 0.3162 µM): 0.909
relative viability (LK-2; first compound 1 µM): 1.07
relative viability (NCI-H1944; first compound 0.01 µM): 0.842
relative viability (NCI-H1944; first compound 0.03162 µM): 0.817
relative viability (NCI-H1944; first compound 0.1 µM): 1.04
relative viability (NCI-H1944; first compound 0.3162 µM): 1.01
relative viability (NCI-H1944; first compound 1 µM): 0.775
relative viability (NCI-H322M; first compound 0.01 µM): 0.584
relative viability (NCI-H322M; first compound 0.03162 µM): 0.6
relative viability (NCI-H322M; first compound 0.3162 µM): 0.577
relative viability (NCI-H322M; first compound 1 µM): 0.455
relative viability (HARA; first compound 0.01 µM): 0.547
relative viability (HARA; first compound 0.03162 µM): 0.756
relative viability (HARA; first compound 0.1 µM): 0.702
relative viability (HARA; first compound 0.3162 µM): 0.797
relative viability (HARA; first compound 1 µM): 0.665
relative viability (NCI-H1993; first compound 0.01 µM): 0.823
relative viability (NCI-H1993; first compound 0.03162 µM): 0.911
relative viability (NCI-H1993; first compound 0.1 µM): 0.813
relative viability (NCI-H1993; first compound 0.3162 µM): 0.764
relative viability (NCI-H1993; first compound 1 µM): 0.829
relative viability (NCI-H596; first compound 0.01 µM): 1.11
relative viability (NCI-H596; first compound 0.03162 µM): 1.16
relative viability (NCI-H596; first compound 0.1 µM): 1.06
relative viability (NCI-H596; first compound 0.3162 µM): 1.16
relative viability (NCI-H596; first compound 1 µM): 1.16
relative viability (HOP-62; first compound 0.01 µM): 0.996
relative viability (HOP-62; first compound 0.03162 µM): 0.856
relative viability (HOP-62; first compound 0.1 µM): 0.821
relative viability (HOP-62; first compound 0.3162 µM): 0.958
relative viability (HOP-62; first compound 1 µM): 1.17
relative viability (NCI-H3122; first compound 0.01 µM): 1.04
relative viability (NCI-H3122; first compound 0.03162 µM): 0.961
relative viability (NCI-H3122; first compound 0.1 µM): 1.03
relative viability (NCI-H3122; first compound 0.3162 µM): 0.953
relative viability (NCI-H3122; first compound 1 µM): 0.97
relative viability (A-427; first compound 0.01 µM): 1.12
relative viability (A-427; first compound 0.03162 µM): 1.01
relative viability (A-427; first compound 0.1 µM): 0.982
relative viability (A-427; first compound 0.3162 µM): 1.01
relative viability (A-427; first compound 1 µM): 1.05
relative viability (ABC-1; first compound 0.01 µM): 1.07
relative viability (ABC-1; first compound 0.03162 µM): 1.07
relative viability (ABC-1; first compound 0.1 µM): 1.6
relative viability (ABC-1; first compound 0.3162 µM): 1.04
relative viability (ABC-1; first compound 1 µM): 1.2
relative viability (SW 1573; first compound 0.01 µM): 0.21
relative viability (SW 1573; first compound 0.03162 µM): 1.22
relative viability (SW 1573; first compound 0.1 µM): 1.06
relative viability (SW 1573; first compound 0.3162 µM): 1.07
relative viability (SW 1573; first compound 1 µM): 1.14
relative viability (LXF-289; first compound 0.01 µM): 0.872
relative viability (LXF-289; first compound 0.03162 µM): 0.881
relative viability (LXF-289; first compound 0.1 µM): 0.89
relative viability (LXF-289; first compound 0.3162 µM): 0.897
relative viability (LXF-289; first compound 1 µM): 0.946
